# Experimental data reported in ChEMBL document CHEMBL1268938, “Identification of a red-emitting fluorescent ligand for in vitro visualization of human serotonin 5-HT(1A) receptors” (Bioorg Med Chem Lett, 2010).
# Target: T1, 5-hydroxytryptamine receptor 1A (Homo sapiens, UniProt P08908)
# T1 sequence (P08908 whole entry): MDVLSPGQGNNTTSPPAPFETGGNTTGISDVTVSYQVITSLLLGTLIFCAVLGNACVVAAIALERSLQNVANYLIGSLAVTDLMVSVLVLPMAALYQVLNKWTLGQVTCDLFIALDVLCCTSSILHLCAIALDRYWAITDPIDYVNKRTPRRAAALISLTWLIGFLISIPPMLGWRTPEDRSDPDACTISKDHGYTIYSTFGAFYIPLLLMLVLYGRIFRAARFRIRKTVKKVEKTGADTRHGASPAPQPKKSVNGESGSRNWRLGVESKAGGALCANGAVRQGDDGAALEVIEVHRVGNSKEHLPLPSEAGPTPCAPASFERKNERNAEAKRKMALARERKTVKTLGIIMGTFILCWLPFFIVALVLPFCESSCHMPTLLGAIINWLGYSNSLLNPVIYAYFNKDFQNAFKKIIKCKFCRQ
# Assay: Displacement of [3H]8-OH-DPAT from human cloned 5HT1A receptor expressed in HEK293 cells
# Format: cell-based
row,SMILES,Ki [nM]
1,CCCCCN1CCN(c2ccccc2OC)CC1,5.16
2,CCN(CC)c1ccc2cc(/C=C/C3=[N+](CCCCCC(=O)Oc4cccc(CCN5CCN(c6ccccc6OC)CC5)c4)c4ccccc4C3(C)C)c(=O)oc2c1,35
3,COc1ccccc1N1CCN(CCCCCNC(=O)c2ccc(SC3=C(/C=C/C4=[N+](CCCCS(=O)(=O)[O-])c5ccccc5C4(C)C)CCC/C3=C\C=C3\N(CCCCS(=O)(=O)O)c4ccccc4C3(C)C)cc2)CC1,65.8
4,COc1cccc(CCN2CCN(c3ccccc3OC)CC2)c1,2.4
5,COc1ccccc1N1CCN(CCc2cccc(OCCCCCOc3cccc(CCN4CCN(c5ccccc5OC)CC4)c3)c2)CC1,1.7
